Test results published in patent publication US20170253601A1, “Substituted Pyrrolidine Compounds” (EPIZYME, INC., priority 2014, published 2017).

Target: T1, human SMYD3 (Homo sapiens, UniProt Q9H7B4)
T1 construct: Expressed full-length human His-tagged SMYD3 protein was purified from cell paste; His6 (cleaved yes); TEV and SUMO cleavage sites (cleaved yes); made in house; host or cells: E. coli BL21 codonplus RIL
T1 sequence (Q9H7B4 1-428): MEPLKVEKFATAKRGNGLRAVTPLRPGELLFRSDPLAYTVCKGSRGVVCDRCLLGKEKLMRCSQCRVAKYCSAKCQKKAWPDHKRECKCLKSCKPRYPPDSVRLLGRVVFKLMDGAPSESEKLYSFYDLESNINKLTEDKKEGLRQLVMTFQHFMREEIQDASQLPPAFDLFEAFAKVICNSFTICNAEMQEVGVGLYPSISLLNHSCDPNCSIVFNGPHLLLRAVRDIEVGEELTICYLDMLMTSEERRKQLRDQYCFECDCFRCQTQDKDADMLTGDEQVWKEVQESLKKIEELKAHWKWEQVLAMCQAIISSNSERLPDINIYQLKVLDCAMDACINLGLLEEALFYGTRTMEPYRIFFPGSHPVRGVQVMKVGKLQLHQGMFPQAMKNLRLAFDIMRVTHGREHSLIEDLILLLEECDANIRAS
Experiment: SMYD3 Biochemical Assay (3H-SAM, MEKK2 protein substrate, SPA)
Conditions: Table 1; average of n = 1 to n = 50; read-out: SMYD3 Biochem IC50
Text: S-adenosylmethionine (SAM), S-adenosylhomocysteine (SAH), Tris, Tween20, dimethylsulfoxide (DMSO), bovine skin gelatin (BSG), and Tris(2-carboxyethyl)phosphine hydrochloride solution (TCEP) were purchased from Sigma-Aldrich at the highest level of purity possible. ^3H-SAM was purchase from American Radiolabeled Chemicals with a specific activity of 80 Ci/mmol. 384-well opaque white OptiPlates and SPA beads (Perkin Elmer, catalog # RPNQ0013) were purchased from PerkinElmer.
N-terminally GST-tagged MEKK2 (MAP3K2) protein corresponding to reference sequence AAF63496.3 was purchased from Life Technologies (catalog # PV4010). This protein was expressed in High Five insect cells and purified to >85% purity. Protein identity was confirmed by MS/MS analysis after proteolytic digestion. The protein sequence used was:
Full-length human SMYD3 isoform 1 (BAB86333) was inserted into a modified pET21b plasmid containing a His6 tag and TEV and SUMO cleavage sites. Because two common variants of SMYD3 exist in the population, site directed mutagenesis was subsequently performed to change amino acid 13 from an asparagine to a lysine, resulting in plasmid pEPZ533. A lysine at position 13 conforms to the more commonly occurring sequence (NP_001161212).
E. coli (BL21 codonplus RIL strain, Stratagene) were transformed with plasmid pEPZ553 by mixing competent cells and plasmid DNA and incubating on ice for 30 minutes followed by heat shock at 42° C. for 1 minute and cooling on ice for 2 minutes. Transformed cells were grown and selected on LB agar with 100 μg/mL ampicillin and 17 μg/mL chloramphenicol at 37° C. overnight. A single clone was used to inoculate 200 mL of LB medium with 100 μg/mL ampicillin and 17 μg/mL chloramphenicol and incubated at 37° C. on an orbital shaker at 180 rpm. Once in log growth, the culture was diluted 1:100 into 2 L of LB medium and grown until OD600 was about 0.3 after which the culture was incubated at 15° C. and 160 rpm. Once OD600 reached about 0.4, IPTG was added to a final concentration of 0.1 mM and the cells were grown overnight at 15° C. and 160 rpm. Cells were harvested by centrifugation at 8000 rpm, for 4 minutes at 4° C. and stored at −80° C. for purification.
Expressed full-length human His-tagged SMYD3 protein was purified from cell paste by Nickel affinity chromatography after equilibration of the resin with Buffer A (25 mM Tris, 200 mM NaCl, 5% glycerol, 5 mM β-mercaptoethanol, pH7.8). The column was washed with Buffer B (Buffer A plus 20 mM imidazole) and His-tagged SMYD3 was eluted with Buffer C (Buffer A plus 300 mM imidazole). The His tag, TEV and SUMO cleavage sites were removed generating native SMYD3 by addition of ULP1 protein at a ratio of 1:200 (ULP1:SMYD3). Imidazole was removed by dialysis overnight in Buffer A. The dialyzed solution was applied to a second Nickel column and the native SMYD3 protein was collected from the column flow-through. The flow-through was dialyzed in Buffer D (25 mM Tris, 5% glycerol, 5 mM β-mercaptoethanol, 50 mM NaCl, pH7.8) and ULP1 was removed using a Q sepharose fast flow column. SMYD3 was eluted in Buffer A and further purified using an S200 size-exclusion column equilibrated with Buffer A. SMYD3 was concentrated to 2 mg/mL with a final purity of 89%.
The assays were all performed in a buffer consisting of 25 mM Tris-Cl pH 8.0, 1 mM TCEP, 0.005% BSG, and 0.005% Tween 20, prepared on the day of use. Compounds in 100% DMSO (1 ul) were spotted into a 384-well white opaque OptiPlate using a Bravo automated liquid handling platform outfitted with a 384-channel head (Agilent Technologies). DMSO (1 ul) was added to Columns 11, 12, 23, 24, rows A-H for the maximum signal control and 1 ul of SAH, a known product and inhibitor of SMYD3, was added to columns 11, 12, 23, 24, rows I-P for the minimum signal control. A cocktail (40 ul) containing the SMYD3 enzyme was added by Multidrop Combi (Thermo-Fisher). […]

IC50 [µM]	SMILES
50.4	CN1C[C@H](NC(=O)c2cc(C3CC3)on2)[C@@H](c2ccccc2)C1 (racemic) [compound 18, (±)-trans-5-cyclopropyl-N-(1-methyl-4-phenylpyrrolidin-3-yl)isoxazole-3-carboxamide]
> 200	C[C@H]1C[C@H](NC(=O)c2cc(C3CC3)on2)C(=O)N1c1cnn(C)c1 (racemic) [compound 20, (±)-trans 5-cyclopropyl-N-(5-methyl-1-(1-methyl-1H-pyrazol-4-yl)-2-oxopyrrolidin-3-yl)isoxazole-3-carboxamide]
> 100	CC(=O)Nc1ccc(S(=O)(=O)N2CC[C@@H](NC(=O)c3cc(C4CC4)on3)C2)cc1 [compound 2, (R)-N-(1-((4-acetamido-phenyl)sulfonyl)pyrrolidin-3-yl)-5-cyclopropyl-isoxazole-3-carboxamide]
55.1	CN1CCC(NC(=O)c2cc(C3CC3)on2)C1c1ccccc1 (stereo not shown) [compound 5, 5-cyclopropyl-N-(1-methyl-2-phenyl-pyrrolidin-3-yl)isoxazole-3-carboxamide]
> 200	Cc1cc(N2CCC(NC(=O)c3cc(C4CC4)on3)C2=O)n(C)n1 (stereo not shown) [compound 6, 5-cyclopropyl-N-(1-(1,3-dimethyl-1H-pyrazol-5-yl)-2-oxopyrrolidin-3-yl)isoxazole-3-carboxamide]
51.5	CN1CCC(NC(=O)c2cc(C3CC3)on2)C1c1ccc(Cl)c(F)c1 (stereo not shown) [compound 7, N-(2-(4-chloro-3-fluorophenyl)-1-methylpyrrolidin-3-yl)-5-cyclo-propylisoxazole-3-carboxamide]
12.4	O=C(NC1CCN(C2CC2)C1c1ccc(F)c(F)c1)c1cc(C2CC2)on1 (stereo not shown) [compound 8, 5-cyclopropyl-N-(1-cyclopropyl-2-(3,4-difluoro-phenyl)pyrrolidin-3-yl)isoxazole-3-carboxamide]
67.2	CN1CCC(NC(=O)c2cc(C3CC3)on2)C1c1ccc(F)c(F)c1 (stereo not shown) [compound 9, 5-cyclopropyl-N-(2-(3,4-difluorophenyl)-1-methylpyrrolidin-3-yl)isoxazole-3-carboxamide]
53.5	CC1CC(NC(=O)c2cc(C3CC3)on2)CN1c1ccccc1 (stereo not shown) [compound 10, 5-cyclopropyl-N-(5-methyl-1-phenylpyrrolidin-3-yl)isoxazole-3-carboxamide]
158	Cn1ccc(N2CCC(NC(=O)c3cc(C4CC4)on3)C2=O)n1 (stereo not shown) [compound 15, 5-cyclopropyl-N-(1-(1-methyl-1H-pyrazol-3-yl)-2-oxopyrrolidin-3-yl)isoxazole-3-carboxamide]
77.4	COc1cccc(C2C(NC(=O)c3cc(C4CC4)on3)CCN2C2CC2)c1 (stereo not shown) [compound 16, 5-cyclopropyl-N-(1-cyclopropyl-2-(3-methoxy-phenyl)pyrrolidin-3-yl)isoxazole-3-carboxamide]
54.1	CC1CC(NC(=O)c2cc(C3CC3)on2)CN1Cc1ccccc1 (stereo not shown) [compound 21, N-(1-benzyl-5-methylpyrrolidin-3-yl)-5-cyclopropyl-isoxazole-3-carboxamide]
47.1	CC1CC(NC(=O)c2cc(C3CC3)on2)CN1C1CC1 (stereo not shown) [compound 22, 5-cyclopropyl-N-(1-cyclopropyl-5-methylpyrrolidin-3-yl)isoxazole-3-carboxamide]
48.5	CC1CN(C2CC2)CC1NC(=O)c1cc(C2CC2)on1 (stereo not shown) [compound 23, 5-cyclopropyl-N-(1-cyclopropyl-4-methylpyrrolidin-3-yl)isoxazole-3-carboxamide]
98.8	O=C(NC1CC(=O)N(c2ccccc2)C1)c1cc(C2CC2)on1 (stereo not shown) [compound 25, 5-cyclopropyl-N-(5-oxo-1-phenylpyrrolidin-3-yl)isoxazole-3-carboxamide]
> 200	O=C(NC1CCN(Cc2ccccc2)C1=O)c1cc(C2CC2)on1 (stereo not shown) [compound 27, N-(1-benzyl-2-oxopyrrolidin-3-yl)-5-cyclopropylisoxazole-3-carboxamide]
94.2	O=C(NC1CCN(c2ccccc2)C1=O)c1cc(C2CC2)on1 (stereo not shown) [compound 28, 5-cyclopropyl-N-(2-oxo-1-phenyl-pyrrolidin-3-yl)isoxazole-3-carboxamide]

The next lines start with the compound.

SMILES	IC50 [µM]
CN1C[C@H](NC(=O)c2cc(C3CC3)on2)[C@H](c2ccccc2)C1 (racemic) [compound 17, (±)-cis-5-cyclopropyl-N-((1-methyl-4-phenylpyrrolidin-3-yl)isoxazole-3-carboxamide]	56.2
C[C@@H]1C[C@H](NC(=O)c2cc(C3CC3)on2)C(=O)N1c1cnn(C)c1 (racemic) [compound 19, (±)-cis-5-cyclopropyl-N-(5-methyl-1-(1-methyl-1H-pyrazol-4-yl)-2-oxopyrrolidin-3-yl)isoxazole-3-carboxamide]	> 200
CC(=O)Nc1ccc(S(=O)(=O)N2CC[C@H](NC(=O)c3cc(C4CC4)on3)C2)cc1 [compound 1, (S)-N-(1-((4-acetamido-phenyl)sulfonyl)pyrrolidin-3-yl)-5-cyclopropyl-isoxazole-3-carboxamide]	> 100
O=C(N[C@H]1CCNC1)c1cc(C2CC2)on1 [compound 3, (S)-5-cyclopropyl-N-(pyrrolidin-3-yl)isoxazole-3-carboxamide]	80.3
O=C(N[C@@H]1CCNC1)c1cc(C2CC2)on1 [compound 4, (R)-5-cyclopropyl-N-(pyrrolidin-3-yl)isoxazole-3-carboxamide]	83.7
CC1CC(NC(=O)c2cc(C3CC3)on2)C(=O)N1c1ccccc1 (stereo not shown) [compound 11, 5-cyclopropyl-N-(5-methyl-2-oxo-1-phenylpyrrolidin-3-yl)isoxazole-3-carboxamide]	78.1
CC(C)N1CCC(NC(=O)c2cc(C3CC3)on2)C1c1ccc(F)c(F)c1 (stereo not shown) [compound 12, 5-cyclopropyl-N-(2-(3,4-difluorophenyl)-1-isopropylpyrrolidin-3-yl)isoxazole-3-carboxamide]	58.6
CN1CCC(NC(=O)c2cc(C3CC3)on2)C1c1ccc(F)cc1 (stereo not shown) [compound 13, 5-cyclopropyl-N-(2-(4-fluorophenyl)-1-methylpyrrolidin-3-yl)isoxazole-3-carboxamide]	51.9
CN1C(=O)CC(NC(=O)c2cc(C3CC3)on2)C1c1ccc(F)cc1 (stereo not shown) [compound 14, 5-cyclopropyl-N-(2-(4-fluorophenyl)-1-methyl-5-oxopyrrolidin-3-yl)isoxazole-3-carboxamide]	58.5
CC(c1ccccc1)N1CCC(NC(=O)c2cc(C3CC3)on2)C1 (stereo not shown) [compound 24, 5-cyclopropyl-N-(1-(1-phenylethyl)pyrrolidin-3-yl)isoxazole-3-carboxamide]	38.4
O=C(NC1CC(=O)N(Cc2ccccc2)C1)c1cc(C2CC2)on1 (stereo not shown) [compound 26, N-(1-benzyl-5-oxopyrrolidin-3-yl)-5-cyclopropylisoxazole-3-carboxamide]	88.4
